Reference: PMC3320615, “β-Microseminoprotein Endows Post Coital Seminal Plasma with Potent Candidacidal Activity by a Calcium- and pH-Dependent Mechanism” (PLoS Pathogens, 2012)

B1: recombinant MSP: Recombinant human β-microseminoprotein from R&D Systems (protein)
chain: SCYFIPNEGVPGDSTRKCMDLKGNKHPINSEWQTDNCETCTCYETEISCCTLVSTPVGYDKDNCQRIFKKEDCKYIVVEKKDPKKTCSVSEWII

Experiments:
[1] = test system: erythrocytes; experiment: Lysis of erythrocytes; assay type: cell-based, human; settings: 100 µM; 1 ½ hour; absorbance at 550 nm; vs 2% Triton-X100
Procedure: (§1) The cytotoxicity of MSP was evaluated by the ability of 100 µM MSP66–76 or MSP66–76E/Q to cause LDH release from HaCaT cells and lysis of erythrocytes.
(§2) Supplementary file ppat.1002625.s006.tif: Table S1 Cytoxic and hemolytic Effect of MSP66–76E/Q and MSP66–76. HaCaT cells were treated with 100 µM of MSP66–76E/Q and MSP66–76 over night. The release of LDH was subsequently determined by colorimetric assay and depicted as percent of LDH release of cells treated with 2% Triton- X100. Erythrocytes were treated for 1 ½ hour with 100 µM of MSP66–76E/Q and MSP66–76 followed by centrifugation. Lysis was determined by measuring hemoglobin in the supernatant by measuring the absorbance at 550 nm. Results are depicted as % of lysis compared to lysis obtained by 2% Triton-X100. (TIF) Click here for additional data file.

[2] = test system: HaCaT cells; experiment: LDH release from HaCaT cells; assay type: cell-based, human; settings: 100 µM; over night; colorimetric; vs 2% Triton-X100
Procedure: as §1, §2

[3] = test system: Candida albicans ATCC 90028; experiment: CFU assay with C. albicans; assay type: cell-based; settings: for Estimate (difference between means of log values): control - treatment, pH 4
From the text: Candida albicans strains: ATCC 90028, CAF-1-2, SC5814, BM4f35II68, vaginal clinical isolates from Dept. of Clincal Microbiology, Skåne University Hospital, SO_303369 and SO_503471. Candida parapsilosis strains: ATCC 90018, BD1800, BD17837, and BM24/68/09. Candida glabrata strains: ATCC 90030, clinical isolates from Dept. of Clincal Microbiology, Skåne University Hospital, SO_3336, SO_3400 and SO_503413. All strains were inoculated from frozen culture and grown in Yeast extract-Peptone-Dextrose (YPD) (Sigma) and on Sabourand Dextrose Broth (SAB) (Difco) plates at 30°C with 5% (v/v) CO2. If not otherwise stated, ATCC 90028 was used for candidacidal experiments.
(§3) Candida albicans was grown over night, washed, and resuspended in 10 mM Tris, 5 mM glucose, pH 7.4 or pH 4. Approximately 4×10^3 to 10^4 CFU of C. albicans were incubated with the test substance in low or neutral pH buffer for 4 h at 37°C. After incubation, the suspension was diluted and plated. Colonies were counted after two days incubation of the plates at 30°C. Bacteria from overnight cultures were inoculated in fresh medium and grown for 3 h, washed in 10 mM Tris, 5 mM glucose pH 7.4. Approximately 8×10^4 CFU were incubated with sample in 10 mM Tris, 5 mM glucose pH 7.4 or pH 4 for 1 h at 37°C, diluted, plated and incubated over night at 37°C and the colonies counted.
Statistical analysis was performed using SAS 9.2 software (SAS Institute, Cary, NC). Colony counts were log transformed. In order to choose the statistical method, interactions between the Treatment and Experiment were investigated. Treatments were screened by doing pair wise comparisons of each treatment to a control. Statistical tests used for the comparisons included MIXED procedure and LSMEANS statement. All tests where P-value<.05 were considered to indicate statistical significance. P-values were not adjusted for the multiple comparisons.
“Estimate” is the estimate of the difference between means of log values of treatment 1 and treatment 2

[4] = test system: C. albicans; experiment: Antifungal gel overlay assay (AU-PAGE); assay type: cell-based, Candida albicans
Procedure: Gel overlay assay was performed essentially as described. Briefly, duplicate samples were run on native Acid Urea (AU-PAGE) gels in 5% (v/v) acetic acid at 100 V for 1 h 20 min. Candida albicans was grown over night, washed and resuspended in 10 mM NaPO4 pH 7.4 and approximately 1×10^5 CFU were added to 12 ml melted underlay agarose (10 mM NaPO4, pH 7.4, 0.03% SAB, 1% agarose type 1 (Sigma, St. Louis, MO)) and poured into a square Petri dish. One AU-gel was stained with Coomassie brilliant blue and one AU gel was washed 3×4 min in 10 mM NaPO4, pH 7.4 and then placed on top of the agarose and incubated for 4 h at 37°C. The AU gel was then removed and an overlay agarose (6% SAB, 1% agarosetype 1 (Sigma)) was poured on top of the underlay and incubated over night at 30°C. To make the clearing zones more visible, the agarose was stained with Coomassie brilliant blue followed by destaining.

[5] = test system: E. faecalis (strain 2374); experiment: Antibacterial CFU assay; assay type: cell-based; settings: purified MSP 10 µM + 20 µM EDTA or recombinant dialyzed MSP 10 µM + 10 µM EDTA; low and neutral pH; data not shown
Procedure: as §3, with “E. coli (strain 37.4), S. aureus (strain 5120), S. pyogenes (M5 Manfredo), S. agalactiae (SB1), and E. faecalis (strain 2374) were grown in THY medium (Todd Hewitt with addition of yeast) and on THY agar plates at 37°C with 5% (v/v) CO2. Candida” for “Candida”

[6] = test system: S. pyogenes (M5 Manfredo); experiment: Antibacterial CFU assay; assay type: cell-based; settings: purified MSP 10 µM + 20 µM EDTA or recombinant dialyzed MSP 10 µM + 10 µM EDTA; neutral pH; data not shown
Procedure: as §3, with “E. coli (strain 37.4), S. aureus (strain 5120), S. pyogenes (M5 Manfredo), S. agalactiae (SB1), and E. faecalis (strain 2374) were grown in THY medium (Todd Hewitt with addition of yeast) and on THY agar plates at 37°C with 5% (v/v) CO2. Candida” for “Candida”

[7] = test system: E. coli (strain 37.4); experiment: Antibacterial CFU assay; assay type: cell-based; settings: purified MSP 10 µM + 20 µM EDTA or recombinant dialyzed MSP 10 µM + 10 µM EDTA; low and neutral pH; data not shown
Procedure: as §3, with “E. coli (strain 37.4), S. aureus (strain 5120), S. pyogenes (M5 Manfredo), S. agalactiae (SB1), and E. faecalis (strain 2374) were grown in THY medium (Todd Hewitt with addition of yeast) and on THY agar plates at 37°C with 5% (v/v) CO2. Candida” for “Candida”

[8] = test system: S. aureus (strain 5120); experiment: Antibacterial CFU assay; assay type: cell-based; settings: purified MSP 10 µM + 20 µM EDTA or recombinant dialyzed MSP 10 µM + 10 µM EDTA; neutral pH; data not shown
Procedure: as §3, with “E. coli (strain 37.4), S. aureus (strain 5120), S. pyogenes (M5 Manfredo), S. agalactiae (SB1), and E. faecalis (strain 2374) were grown in THY medium (Todd Hewitt with addition of yeast) and on THY agar plates at 37°C with 5% (v/v) CO2. Candida” for “Candida”

[9] = test system: S. agalactiae (SB1); experiment: Antibacterial CFU assay; assay type: cell-based; settings: purified MSP 10 µM + 20 µM EDTA or recombinant dialyzed MSP 10 µM + 10 µM EDTA; neutral pH; data not shown
Procedure: as §3, with “E. coli (strain 37.4), S. aureus (strain 5120), S. pyogenes (M5 Manfredo), S. agalactiae (SB1), and E. faecalis (strain 2374) were grown in THY medium (Todd Hewitt with addition of yeast) and on THY agar plates at 37°C with 5% (v/v) CO2. Candida” for “Candida”

Molecule | Lysis of erythrocytes [1] | LDH release from HaCaT cells [2] | Effect of 0.5 mM calcium on antifungal activity ([3]; acidic pH, Figure S2) | Estimate (difference between means of log values) ([3]; 140 µM + 0.5 mM calcium, experiment 1) | Estimate (difference between means of log values) ([3]; 140 µM + 0.5 mM calcium, experiment 2) | Estimate (difference between means of log values) ([3]; 140 µM + 0.5 mM calcium, experiment 3) | Estimate (difference between means of log values) ([3]; 140 µM + 0.5 mM magnesium, experiment 1) | Estimate (difference between means of log values) ([3]; 140 µM + 0.5 mM magnesium, experiment 2) | Estimate (difference between means of log values) ([3]; 140 µM + 0.5 mM magnesium, experiment 3) | Estimate (difference between means of log values) ([3]; 140 µM, experiment 1) | Estimate (difference between means of log values) ([3]; 140 µM, experiment 2) | Estimate (difference between means of log values) ([3]; 140 µM, experiment 3) | Calcium concentration inhibiting the antifungal activity ([3]; neutral pH, Figure S2) [µM] | Clearing zone in antifungal gel overlay assay [4] | Antibacterial activity in CFU assay [5] | Antibacterial activity in CFU assay [6] | Antibacterial activity in CFU assay [7] | Antibacterial activity in CFU assay [8] | Antibacterial activity in CFU assay [9] | Fungicidal activity in CFU assay ([3]; native MSP 10 µM + 20 µM EDTA or recombinant dialyzed MSP 10 µM + 10 µM EDTA)
RIFKKQDCKYI [MSP66–76E/Q, mutated form of MSP66–76 where E71 was substituted with a glutamine] | No significant LDH release or lysis | No significant LDH release | not inhibited | 3.1854 | 2.1182 | 2.6879 | 4.0137 | 1.7951 | 4.5634 | 5.3523 | 5.6354 | 5.8836 | 50 to 100 | – | – | – | – | – | – | –
prostate specific antigen: major protein from the prostate [reference compound] | – | – | – | – | – | – | – | – | – | – | – | – | – | did not give rise to clearing zones | – | – | – | – | – | –
B1 | – | – | – | – | – | – | – | – | – | – | – | – | – | displayed antifungal activity by producing a clearing zone | no antibacterial activity | no antibacterial activity | no antibacterial activity | no antibacterial activity | no antibacterial activity | prominent fungicidal activity
